Assay results as given in paper PMC12673578 (Molecular Pharmaceutics, 2025).
Several values for one entry are separate records, joined by “and”; a condition that tells them apart may be missing. Equal values may be shown once. Read-outs that look alike come from different tables or passages of the source.

How the values were obtained:
CES1 G143E variant = details: second cited study; literature value; cited from earlier work
rCYP2C9 = rCYP2C9 (Homo sapiens, UniProt P11712)
Protocol: (§1) The samples were analyzed using an LC-MS/MS system consisting of microflow LC and Xevo-TQ-XS MS systems (Waters, Milford, MA). An Acquity UPLC HSS T3 C18 column ([…]) equipped with a guard column (Vanguard precolumn, […], 2.1 × 5 mm) was used for the analysis. […] The mass spectrometer was operated in multiple reaction monitoring (MRM) and positive ionization modes with a cone voltage of 30 V using an electrospray ionization source.
(§2) The relative expression factor (REF) for the rCYPs and rCES was calculated by using eq . 2 REF=CYPorCEScontentinpooledHLM(permgprotein)/CYPorCES content in the recombinant system (per mg protein)
(§3) 3 Rateofmetabolism=Vmax×S/Km+S
(§4) The CLint, total for each isoform was then multiplied with the respective REF values, and fraction metabolized (f m) is calculated as shown in eq . 4 fm,CYPi=ScaledCLint,total,2−oxo−clopidogrelCYPi/ScaledactivityCYPall×100

rCYP2C19 = rCYP2C19 (Homo sapiens, UniProt P33261)
Protocol: as §1, §2, §3, §4

rCYP2B6 = rCYP2B6 (Homo sapiens, UniProt P20813)
Protocol: as §1, §2, §3, §4

rCYP1A2 = rCYP1A2 (Homo sapiens, UniProt P05177)
Protocol: as §1, §2, §3, §4

[1] = following oral administration; literature value; cited from earlier work
[2] = pooled fractions 0.5 mg/mL, clopidogrel 150 μM
Protocol: The protein concentration was maintained at 0.5 mg/mL, and all incubations were conducted in triplicates in a water bath shaker at 37 °C with incubation volumes of 100 μL each. […] Samples were centrifuged at 10,000g for 5 min (4 °C), and the supernatants were collected and diluted 10-fold using a 75:25 (0.1% formic acid in ACN/0.1% formic acid in water) solution before being transferred to an LC-MS vial for analysis.
(§5) The samples were analyzed using an LC-MS/MS system consisting of microflow LC and Xevo-TQ-XS MS systems (Waters, Milford, MA). An Acquity UPLC HSS T3 C18 column (1.8 mm, 1 mm × 100 × 100 mm) equipped with a guard column (Vanguard precolumn, 1.8 mm, 2.1 × 5 mm) was used for the analysis. […] The mass spectrometer was operated in multiple reaction monitoring (MRM) and positive ionization modes with a cone voltage of 30 V using an electrospray ionization source.

rCES1 = rCES1 (Homo sapiens, UniProt P23141); details: rCES1 0.1 mg/mL, clopidogrel 0.9–240 μM, 30 min, 37 °C
Protocol: as §5

CYP3A = details: ketoconazole coadministered, literature value, cited from earlier work
not read = substrate: COC(=O)[C@H](c1ccccc1Cl)N1CCc2sccc2C1; experiment: not read; details: 5 min, 37 °C
[3] = other: rCYP2C9, clopidogrel 0.3–160 μM
[4] = other: rCYP2C19, clopidogrel 0.3–160 μM
[5] = other: rCYP1A2, clopidogrel 0.3–160 μM

rCYP2B6, sequence (P20813 whole entry): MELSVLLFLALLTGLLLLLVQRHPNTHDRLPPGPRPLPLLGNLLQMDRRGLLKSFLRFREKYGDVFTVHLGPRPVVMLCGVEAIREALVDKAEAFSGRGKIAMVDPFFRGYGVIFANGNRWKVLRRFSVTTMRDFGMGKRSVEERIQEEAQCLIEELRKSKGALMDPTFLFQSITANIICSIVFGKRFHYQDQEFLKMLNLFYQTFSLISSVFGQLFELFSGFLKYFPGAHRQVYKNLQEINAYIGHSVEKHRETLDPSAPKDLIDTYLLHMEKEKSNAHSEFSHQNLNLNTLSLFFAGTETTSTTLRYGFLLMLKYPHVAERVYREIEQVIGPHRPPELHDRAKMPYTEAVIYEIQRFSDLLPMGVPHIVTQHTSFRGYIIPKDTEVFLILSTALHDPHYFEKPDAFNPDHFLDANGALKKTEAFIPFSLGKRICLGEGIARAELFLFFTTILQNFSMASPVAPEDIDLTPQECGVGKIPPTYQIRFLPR
rCES1, sequence (P23141 18-567): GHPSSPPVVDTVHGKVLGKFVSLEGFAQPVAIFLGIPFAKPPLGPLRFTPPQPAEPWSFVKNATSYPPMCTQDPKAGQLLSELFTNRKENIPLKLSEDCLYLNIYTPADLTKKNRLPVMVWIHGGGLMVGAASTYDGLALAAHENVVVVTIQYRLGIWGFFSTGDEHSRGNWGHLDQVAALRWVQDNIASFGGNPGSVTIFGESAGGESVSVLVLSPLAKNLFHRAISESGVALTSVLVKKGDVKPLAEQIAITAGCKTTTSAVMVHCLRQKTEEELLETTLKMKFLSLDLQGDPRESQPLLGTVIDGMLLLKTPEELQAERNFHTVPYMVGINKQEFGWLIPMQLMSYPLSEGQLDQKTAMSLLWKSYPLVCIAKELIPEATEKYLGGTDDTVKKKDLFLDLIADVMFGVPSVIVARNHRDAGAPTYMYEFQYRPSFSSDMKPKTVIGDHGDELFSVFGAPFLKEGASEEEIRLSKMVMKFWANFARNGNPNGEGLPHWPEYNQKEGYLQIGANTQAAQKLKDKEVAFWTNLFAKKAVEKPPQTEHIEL

COC(=O)[C@H](c1ccccc1Cl)N1CCc2sccc2C1 [clopidogrel]
Increase in platelet aggregation inhibition in G143E carriers compared to noncarriers (CES1 G143E variant): 19% | f m (rCYP2C9; fraction of 2-oxo-clopidogrel formation by CYP2C9): 40.3% | K m of 2-oxo-clopidogrel formation (rCYP2C9; rCYP2C9): 20.6 µM | f m (rCYP2C19; fraction of 2-oxo-clopidogrel formation by CYP2C19): 0.1% | K m of 2-oxo-clopidogrel formation (rCYP2C19; rCYP2C19): 13.8 ± 5.5 µM and 13.8 µM | CLint (rCYP2B6): 15.8 μL/mg protein/min | CLint *REF (rCYP2B6): 0.09 μL/mg protein/min | f m (rCYP2B6): 1.5% | CLint (V max/K m) (rCYP2B6; recombinant enzyme): 1.8 μL/pmol P450/min | f m (rCYP1A2; fraction of 2-oxo-clopidogrel formation by CYP1A2): 0.6% | K m of 2-oxo-clopidogrel formation (rCYP1A2; rCYP1A2): 17.0 µM | Fraction of the drug absorbed [1]: approximately 50% | CCA formation rate normalized with CES1 content (pmol/min/pmol CES1) in HLS9 versus HLM [2]: two-fold higher | Rate of formation of 2-oxo-clopidogrel in HLM (pmol/min/mg protein) versus HLS9 [2]: two-fold higher | Rate of formation of CCA in HLM (pmol/min/mg protein) versus HLS9 [2]: two-fold higher | K m for CCA formation (rCES1): 14.92 ± 4.8 µM

CC(=O)N1CCN(c2ccc(OCC3COC(Cn4ccnc4)(c4ccc(Cl)cc4Cl)O3)cc2)CC1 (centres unmarked) [Ketoconazole, ketoconazole]
Reduction of AUC0–24 of clopidogrel active metabolite (CYP3A; after 75 mg clopidogrel maintenance dose (MD)): 29% | Reduction of AUC0–24 of clopidogrel active metabolite (CYP3A; after 300 mg clopidogrel loading dose (LD)): 22% | Decrease of C max of the active metabolite (CYP3A; following LD): 48% | Decrease of C max of the active metabolite (CYP3A; following MD): 61%

B1: rCYP2C9 (Homo sapiens) (protein)
chain: MDSLVVLVLCLSCLLLLSLWRQSSGRGKLPPGPTPLPVIGNILQIGIKDISKSLTNLSKVYGPVFTLYFGLKPIVVLHGYEAVKEALIDLGEEFSGRGIFPLAERANRGFGIVFSNGKKWKEIRRFSLMTLRNFGMGKRSIEDRVQEEARCLVEELRKTKASPCDPTFILGCAPCNVICSIIFHKRFDYKDQQFLNLMEKLNENIKILSSPWIQICNNFSPIIDYFPGTHNKLLKNVAFMKSYILEKVKEHQESMDMNNPQDFIDCFLMKMEKEKHNQPSEFTIESLENTAVDLFGAGTETTSTTLRYALLLLLKHPEVTAKVQEEIERVIGRNRSPCMQDRSHMPYTDAVVHEVQRYIDLLPTSLPHAVTCDIKFRNYLIPKGTTILISLTSVLHDNKEFPNPEMFDPHHFLDEGGNFKKSKYFMPFSAGKRICVGEALAGMELFLFLTSILQNFNLKSLVDPKNLDTTPVVNGFASVPPFYQLCFIPV
kcat (not read; [3]): 0.387 s⁻¹ | kcat/Km (not read; [3]): 1.1 μL/pmol P450/min

B2: rCYP2C19 (Homo sapiens) (protein)
chain: MDPFVVLVLCLSCLLLLSIWRQSSGRGKLPPGPTPLPVIGNILQIDIKDVSKSLTNLSKIYGPVFTLYFGLERMVVLHGYEVVKEALIDLGEEFSGRGHFPLAERANRGFGIVFSNGKRWKEIRRFSLMTLRNFGMGKRSIEDRVQEEARCLVEELRKTKASPCDPTFILGCAPCNVICSIIFQKRFDYKDQQFLNLMEKLNENIRIVSTPWIQICNNFPTIIDYFPGTHNKLLKNLAFMESDILEKVKEHQESMDINNPRDFIDCFLIKMEKEKQNQQSEFTIENLVITAADLLGAGTETTSTTLRYALLLLLKHPEVTAKVQEEIERVIGRNRSPCMQDRGHMPYTDAVVHEVQRYIDLIPTSLPHAVTCDVKFRNYLIPKGTTILTSLTSVLHDNKEFPNPEMFDPRHFLDEGGNFKKSNYFMPFSAGKRICVGEGLARMELFLFLTFILQNFNLKSLIDPKDLDTTPVVNGFASVPPFYQLCFIPV
kcat (not read; [4]): 0.36 s⁻¹ | kcat/Km (not read; [4]): 1.6 μL/pmol P450/min

B3: rCYP1A2 (Homo sapiens) (protein)
chain: MALSQSVPFSATELLLASAIFCLVFWVLKGLRPRVPKGLKSPPEPWGWPLLGHVLTLGKNPHLALSRMSQRYGDVLQIRIGSTPVLVLSRLDTIRQALVRQGDDFKGRPDLYTSTLITDGQSLTFSTDSGPVWAARRRLAQNALNTFSIASDPASSSSCYLEEHVSKEAKALISRLQELMAGPGHFDPYNQVVVSVANVIGAMCFGQHFPESSDEMLSLVKNTHEFVETASSGNPLDFFPILRYLPNPALQRFKAFNQRFLWFLQKTVQEHYQDFDKNSVRDITGALFKHSKKGPRASGNLIPQEKIVNLVNDIFGAGFDTVTTAISWSLMYLVTKPEIQRKIQKELDTVIGRERRPRLSDRPQLPYLEAFILETFRHSSFLPFTIPHSTTRDTTLNGFYIPKKCCVFVNQWQVNHDPELWEDPSEFRPERFLTADGTAINKPLSEKMMLFGMGKRRCIGEVLAKWEIFLFLAILLQQLEFSVPPGVKVDLTPIYGLTMKHARCEHVQARLRFSIN
kcat (not read; [5]): 0.258 s⁻¹ | kcat/Km (not read; [5]): 0.9 μL/pmol P450/min
